Entries after “also recorded” stand apart in the source; their conditions may differ.
Key:
EL-4 cells = assay: 51Cr release assay (CTL activity) with T cells from immunized mice, EL-4 targets; format: in vivo, mouse
Method: Immunization: On day 9 after surgery, wounds had generally healed and healthy mice were used for immunization with 30 μg peptide per mouse. Depending on the experiment, CpG deoxyoligonucleotide 1668 (5 -100 pmole/mouse), mouse GM-CSF (10^3 units/mouse) and Titermax classic were used as adjuvants. Generally, injection volume was adjusted to 200 μl per mouse with sterile PBS. When applying Titermax classic, all other injection components were mixed and then added in small portions to an equal volume of Titermax classic. After each addition, the vial was rigorously mixed to obtain a white, semi-fluid water-in-oil suspension. […]
T-cell culture and ^51Cr release assay: On day 9 after immunization, mice were sacrificed and 2*10^7 splenocytes were stimulated in vitro for 5 days using 10^7 irradiated (30 Gy) splenocytes from untreated C57BL/6 mice as feeder cells and 5 ng/ml peptide. Cytotoxic T lymphocyte (CTL) activity was measured in a standard ^51Cr release assay (Brunner et al., 1968). Briefly, stimulated cells were harvested, counted and plated out in a series of […] in a round-bottom 96-well plate. […] After intense washing with cell culture medium, 10^4 of these cells were added to each well of the 96-well plate as targets. ^51Cr release was measured after 4 h incubation at 37° C./5% (v/v) CO2.

[1] = tested on: ovalbumin-transfected E.G7 mouse tumor cells; assay: 51Cr release assay (CTL activity) with T cells from immunized mice, E.G7 targets; format: in vivo
Method: Immunization: On day 9 after surgery, wounds had generally healed and healthy mice were used for immunization with 30 μg peptide per mouse. Depending on the experiment, CpG deoxyoligonucleotide 1668 (5 -100 pmole/mouse), mouse GM-CSF (10^3 units/mouse) and Titermax classic were used as adjuvants. Generally, injection volume was adjusted to 200 μl per mouse with sterile PBS. When applying Titermax classic, all other injection components were mixed and then added in small portions to an equal volume of Titermax classic. After each addition, the vial was rigorously mixed to obtain a white, semi-fluid water-in-oil suspension. Injection was either performed subcutaneously into the nape of the neck, the base of tail and the footpad, using a volume ratio of 3:1:1, respectively, or directly into the centre of the right foam implantate.
T-cell culture and ^51Cr release assay: On day 9 after immunization, mice were sacrificed and 2*10^7 splenocytes were stimulated in vitro for 5 days using 10^7 irradiated (30 Gy) splenocytes from untreated C57BL/6 mice as feeder cells and 5 ng/ml peptide. Cytotoxic T lymphocyte (CTL) activity was measured in a standard ^51Cr release assay (Brunner et al., 1968). Briefly, stimulated cells were harvested, counted and plated out in a series of […] in a round-bottom 96-well plate. 10^6 EL-4 cells (C57BL/6-derived T cell lymphoma; ATCC no. TIB-39) were loaded with 50 pmole peptide and [^51Cr] Na2CrO4-labeled at 37° C. for 30 min. After intense washing with cell culture medium, 10^4 of these cells were added to each well of the 96-well plate as targets. ^51Cr release was measured after 4 h incubation at 37° C./5% (v/v) CO2.

[2] = s.c. injection into the nape of the neck, peptide alone, T cells from spleen or lymph nodes of immunized C57BL/6 mice

Sequence | maximum lysis above unspecific background (EL-4 cells; peptide injected into s.c. implanted PVA foams, T cells from axillary and cervical lymph nodes, independent second experiment) [%] | recognition of untransfected EL-4 target cells by T cells (EL-4 cells; [2]) | maximum lysis above unspecific background ([1]; peptide injected into s.c. implanted PVA foams, T cells from spleen) | lysis of ovalbumin-transfected E.G7 cells by T cells ([1]; peptide injected into s.c. implanted PVA foams, T cells from spleen or lymph node) | immune response / recognition of E.G7 target cells by T cells [1, 2]
ASNENMETM (peptide ASNENMETM derived from influenza nucleoprotein (amino acid 366-374)) [peptide derived from influenza nucleoprotein (amino acid 366-374)] | 37 |  |  |  | 
SIINFEKL (Ovalbumin-derived SIINFEKL peptide (amino acid 257-264)) [peptide derived from chicken ovalbumin (amino acid 257-264), model ligand of mouse MHC class I allele H2-Kb] |  | nor untransfected H2-b positive EL-4 mouse tumor cells were recognized | approximately 45% | able to lyse | Neither ovalbumin-transfected E.G7 mouse tumor cells of the H2-b haplotype, nor untransfected H2-b positive EL-4 mouse tumor cells are recognized; also recorded: did not lead to detectable immune responses
